# Data taken from US8853207B2 (Development Center for Biotechnology, priority 2012, dated 2014).
# Where a name gives a salt, the structure may show the parent alone.
# Experiments:
# Assay type in all cases: biochemical
# [1] = biological target: C-kit kinase (recombinant N-terminal 6×His-tagged C-kit kinase domain) (Homo sapiens (Human), UniProt P10721); test: C-kit kinase assay ([33P] incorporation into substrate); settings: 100 μM ATP, 30° C., 30 minutes
# Procedure: Inhibition of C-kit kinase activity by compounds disclosed herein was quantified by measuring the amount of [^33P] incorporated into the substrate in the presence of a test compound. Briefly, a reaction mixture of 25 μL final volume containing 5 ng of C-kit kinase (obtained by purifying recombinant N-terminal 6×His-tagged C-kit kinase domain construct expressed from baculovirus), 5 μg of the substrate [Poly (Glu-Tyr, […], Sigma], kinase reaction buffer (8 mM MOPS/NaOH pH7.0, 0.2 mM EDTA, 10 mM MnCl2, 0.5% glycerol, 0.001% Brij-35, 0.01%, 2-mercaptoethanol, 0.1 mg/ml BSA, 100 μM ATP, 0.1 μCi per well [^33P]-γ-ATP (2,500-3,000 Ci/mmol)), and a test compound (diluted from 9 μM to the desired final concentration by 4% DMSO) or DMSO (as the control) was incubated at 30° C. for 30 minutes. The reaction was stopped by adding 5 μL of 3% phosphoric acid solution. The resultant solution (30 μL) was later harvested by a UniFilter Plate GF/B (PerkinElmer) followed by adding 30 μL of the scintillation cocktail (MicroScint 20, PerkinElmer) to the well. The radioactivity retained on the filter membrane was measured by a luminescence counter (PerkinElmer). The results were analyzed by using linear regression software (GraphPad Prism 4; GraphPad Software Inc.).
# [2] = biological target: FLT3 kinase (FLT3 kinase domain alone, Upstate) (Homo sapiens (Human), UniProt P36888); test: FLT3 kinase assay ([33P] incorporation into substrate); settings: 100 μM ATP, 30° C., 30 minutes; read-out: IC50 against FLT3
# FLT3 kinase (FLT3 kinase domain alone, Upstate), sequence (P36888 610-943): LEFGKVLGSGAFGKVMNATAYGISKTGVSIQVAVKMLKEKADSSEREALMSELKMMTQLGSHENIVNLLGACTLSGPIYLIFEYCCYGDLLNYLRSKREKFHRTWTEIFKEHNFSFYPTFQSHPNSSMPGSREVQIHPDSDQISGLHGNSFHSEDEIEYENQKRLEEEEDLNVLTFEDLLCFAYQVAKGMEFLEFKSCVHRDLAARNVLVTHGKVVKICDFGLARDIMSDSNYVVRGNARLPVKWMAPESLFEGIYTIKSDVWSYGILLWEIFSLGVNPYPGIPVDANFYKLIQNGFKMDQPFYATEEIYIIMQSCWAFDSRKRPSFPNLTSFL
# Procedure: (§1) Inhibition of FLT3 kinase activity by compounds disclosed herein was quantified by measuring the amount of [^33P] incorporated into the substrate in the presence of a test compound. Briefly, a reaction mixture of 25 μL final volume containing 5 ng of FLT3 kinase (FLT3 kinase domain alone, Upstate), 5 μg of the substrate [(Poly (Glu-Tyr, 4:1), Sigma], kinase reaction buffer (20 mM MOPS pH 7.0, 1 mM EDTA, 5% glycerol, 0.01% Brij-35, 0.1% β-mercaptoethanol, 1 mg/mL BSA, 100 μM ATP, 0.1 μCi per well [^33P]-γ-ATP (2,500-3,000 Ci/mmol)), and a test compound (diluted from 9 μM to the desired final concentration by 4% DMSO) or DMSO (as the control) was incubated at 30° C. for 30 minutes. The reaction was stopped by adding 5 μL of 3% phosphoric acid solution. The resultant solution (30 μL) was later harvested by a UniFilter Plate GF/B (PerkinElmer) followed by adding 30 μL of the scintillation cocktail (MicroScint 20, PerkinElmer) to the well. The radioactivity retained on the filter membrane was measured by a luminescence counter (PerkinElmer). The results were analyzed by using linear regression software (GraphPad Prism 4; GraphPad Software Inc.).
# [3] = biological target: PDGFR-β kinase (recombinant N-terminal 6×His-tagged PDGFR-β kinase domain) (Homo sapiens (Human), UniProt P09619); test: PDGFR-β kinase assay ([33P] incorporation into substrate); settings: 30 nM ATP, 30° C., 30 minutes; read-out: IC50 (nM) PDGFRβ
# PDGFR-β kinase (recombinant N-terminal 6×His-tagged PDGFR-β kinase domain), sequence (P09619 600-962): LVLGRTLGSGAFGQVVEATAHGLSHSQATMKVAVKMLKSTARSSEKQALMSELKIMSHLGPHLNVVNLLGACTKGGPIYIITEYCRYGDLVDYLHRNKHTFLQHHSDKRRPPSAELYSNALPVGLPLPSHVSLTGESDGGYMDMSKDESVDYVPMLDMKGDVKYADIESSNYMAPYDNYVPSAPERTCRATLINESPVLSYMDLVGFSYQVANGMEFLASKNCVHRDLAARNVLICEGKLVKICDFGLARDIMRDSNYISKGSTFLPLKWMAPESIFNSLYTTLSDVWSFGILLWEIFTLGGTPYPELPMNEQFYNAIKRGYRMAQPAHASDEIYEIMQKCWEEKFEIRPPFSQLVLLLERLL
# Procedure: as §1, with “of PDGFR-β” for “of FLT3”, “containing 55” for “containing 5”, “kinase (obtained by purifying recombinant N-terminal 6×His-tagged PDGFR-β” for “kinase (FLT3”, “domain construct expressed by baculovirus), 2.5” for “domain alone, Upstate), 5”, “substrate [Poly” for “substrate [(Poly”, “BSA, 2 mM MnCl2, 30 nM” for “BSA, 100 μM”
# C-kit kinase (recombinant N-terminal 6×His-tagged C-kit kinase domain), sequence (P10721 589-937): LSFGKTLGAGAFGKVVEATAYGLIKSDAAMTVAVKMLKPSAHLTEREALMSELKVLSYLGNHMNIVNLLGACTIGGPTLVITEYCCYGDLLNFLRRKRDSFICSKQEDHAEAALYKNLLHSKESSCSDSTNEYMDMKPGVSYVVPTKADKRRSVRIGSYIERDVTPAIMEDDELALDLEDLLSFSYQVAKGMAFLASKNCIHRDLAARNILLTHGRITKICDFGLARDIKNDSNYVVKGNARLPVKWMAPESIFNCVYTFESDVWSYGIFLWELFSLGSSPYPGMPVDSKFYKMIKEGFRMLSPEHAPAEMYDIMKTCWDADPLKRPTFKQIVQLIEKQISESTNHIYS
IC50 [1],IC50 [2],IC50 [3],SMILES
24.8 nM,< 100 nM,479 nM,"COc1ccc(-c2n[nH]c3c2Cc2sc(-c4cccnc4)cc2-3)cc1 [Example-70, 6-(4-Methoxy-phenyl)-2-pyridin-3-yl-4,7-dihydro-1-thia-4,5-diaza-cyclopenta[a]pentalene]"
22 nM,< 100 nM,316 nM,"COc1ccc(-c2n[nH]c3c2Cc2sc(-c4ccncc4)cc2-3)cc1 [Example-69, 6-(4-Methoxy-phenyl)-2-pyridin-4-yl-4,7-dihydro-1-thia-4,5-diaza-cyclopenta[a]pentalene]"
12.2 nM,< 100 nM,176 nM,"COc1ccc(-c2n[nH]c3c2Cc2sc(-c4ccc(NC(=O)CN5CCCC5)nc4)cc2-3)cc1 [Example-82, N-{5-[6-(4-Methoxy-phenyl)-4,7-dihydro-1-thia-4,5-diaza-cyclopenta[a]pentalen-2-yl]-pyridin-2-yl}-2-pyrrolidin-1-yl-acetamide]"
139 nM,< 100 nM,118 nM,"Oc1cccc(Nc2ccc(-c3n[nH]c4c3Cc3sccc3-4)cc2)c1 [Example-10, 3-[4-(4,7-Dihydro-1-thia-4,5-diaza-cyclopenta[a]pentalen-6-yl)-phenylamino]-phenol]"
–,100 to 499 nM,–,"Fc1ccc(Nc2ccc(-c3n[nH]c4c3Cc3sccc3-4)cc2)cc1 [Example-7, [4-(4,7-Dihydro-1-thia-4,5-diaza-cyclopenta[a]pentalen-6-yl)-phenyl]-(4-fluoro-phenyl)-amine]"
27.5 nM,< 100 nM,363 nM,"COc1ccc(-c2n[nH]c3c2Cc2sc(-c4ccc(N)nc4)cc2-3)cc1 [Example-78, 5-[6-(4-Methoxy-phenyl)-4,7-dihydro-1-thia-4,5-diaza-cyclopenta[a]pentalen-2-yl]-pyridin-2-ylamine]"
201 nM,< 100 nM,859 nM,"Nc1ccc(-c2n[nH]c3c2Cc2sccc2-3)cc1 [Example-2, 4-(4,7-Dihydro-1-thia-4,5-diaza-cyclopenta[a]pentalen-6-yl)-phenylamine hydrochloride]"
–,100 to 499 nM,–,"COc1ccccc1Nc1n[nH]c2c1Cc1sccc1-2 [Example-45, (4,7-Dihydro-1-thia-4,5-diaza-cyclopenta[a]pentalen-6-yl)-(2-methoxy-phenyl)-amine]"
–,100 to 499 nM,–,"Nc1ccc(Nc2ccc(-c3n[nH]c4c3Cc3sccc3-4)cc2)cc1 [Example-13, N-[4-(4,7-Dihydro-1-thia-4,5-diaza-cyclopenta[a]pentalen-6-yl)-phenyl]-benzene-1,4-diamine]"
–,100 to 499 nM,–,"O=C1c2sccc2-c2[nH]nc(-c3cccc(Cl)c3)c21 [Example-50, 6-(3-Chloro-phenyl)-4H-1-thia-4,5-diaza-cyclopenta[a]pentalen-7-one]"
–,< 100 nM,–,"COc1cccc(Nc2n[nH]c3c2Cc2sccc2-3)c1 [Example-26, (4,7-Dihydro-1-thia-4,5-diaza-cyclopenta[a]pentalen-6-yl)-(3-methoxy-phenyl)-amine]"
